Data published in the NIST ThermoML archive (doi:10.1021/je301301j).

Experiment: molar heat capacity at constant pressure; xn = mol fraction of the nth substance listed
Details: Liquid, Flow calorimetry

C=CCCCC [hex-1-ene] + CCCCO
molar heat capacity at constant pressure [J/K/mol]
Details | x2 = 0 | x2 = 0.1001 | x2 = 0.2 | x2 = 0.3002 | x2 = 0.3999 | x2 = 0.5018 | x2 = 0.5997 | x2 = 0.7002 | x2 = 0.7999 | x2 = 0.9
293.15 K, 100 kPa | 179.2 | 190.4 | 191.6 | 192.1 | 188.5 | 187.6 | 184.9 | 182.6 | 178.7 | 176.2
293.15 K, 5000 kPa | 174.9 | 187.5 | 188.7 | 189 | 186.7 | 185.6 | 183.1 | 180 | 177.5 | 175.7
293.15 K, 10000 kPa | 172.7 | 184.7 | 186.3 | 186.4 | 184 | 183.6 | 180.6 | 178.7 | 175.1 | 174
293.15 K, 15000 kPa | 169.9 | 182.6 | 183.1 | 185.1 | 182.5 | 182.1 | 178.5 | 177.1 | 173.8 | 172.1
293.15 K, 20000 kPa | 168.1 | 178.4 | 179.9 | 182.8 | 180.1 | 179.8 | 176.1 | 175.8 | 172.4 | 170.7
293.15 K, 25000 kPa | 165.7 | 176.7 | 178 | 180.1 | 178.8 | 178 | 174.8 | 173.5 | 170.7 | 169.3
313.15 K, 100 kPa | 188.8 | 204.1 | 208 | 209.8 | 210.3 | 205.3 | 203 | 200.2 | 198.3 | 193.4
313.15 K, 5000 kPa | 185.9 | 199.9 | 204.8 | 206.6 | 206.5 | 202.6 | 200.6 | 197.6 | 195.5 | 192.5
313.15 K, 10000 kPa | 183.1 | 196.1 | 201.3 | 203.2 | 203.8 | 199.9 | 197.8 | 195.2 | 193.1 | 190.4
313.15 K, 15000 kPa | 181.6 | 193.2 | 198.7 | 200.9 | 201.5 | 197.5 | 195.7 | 194 | 191.9 | 188
313.15 K, 20000 kPa | 179.6 | 191 | 196.2 | 198.2 | 199.5 | 194.1 | 193 | 192 | 190.4 | 186.5
313.15 K, 25000 kPa | 177.2 | 188.1 | 193.4 | 194.5 | 197 | 192.9 | 191.4 | 189.4 | 188.2 | 185
